From patent US20050059710A1, “Diphenylamino ketone derivatives as MEK inhibitors” (Pfizer Inc, priority 2003, published 2005)

Key:
[1] = tested on: MEK; test: Cellular assay for MEK inhibition: ERK phosphorylation in C26 cells, pERK ELISA format (C26ELSA); format: cell-based; details: inhibition of ERK phosphorylation, murine colon 26 (C26) carcinoma cells, one hour at 37° C.
Experimental: (§1) Cellular Assay for Measuring MEK Inhibition
(§2) MEK inhibitors were evaluated by determining their ability to inhibit phosphorylation of MAP kinase (ERK) in murine colon 26 (C26) carcinoma cells. Since ERK1 and ERK2 represent the only known substrates for MEK1and MEK2, the measurement of inhibition of ERK phosphorylation in cells provides direct read out of cellular MEK inhibition by the compounds of the invention. Detection of phosphorylation of ERK was carried out either by Western blot or ELISA format. Briefly, the assays involve treatment of exponentially growing C26 cells with varying concentrations of the test compound (or vehicle control) for one hour at 37° C. For Western blot assay, cells were rinsed free of compound/vehicle and lysed in a solution containing 70 mM NaCl, 50 mM glycerol phosphate, 10 mM HEPES, pH 7.4, 1% Triton X-100, 1 mM Na3VO4, 100 μM PMSF, 10 μM leupeptin and 10 μM pepstatin. Supernatants were then subjected to gel electrophoresis and hybridized to a primary antibody recognizing dually phosphorylated ERK1 and ERK2. To evaluate total MAPK levels, blots were subsequently ‘stripped’ and re-probed with a 1:1 mixture of polyclonal antibodies recognizing unphosphorylated ERK1 and ERK2. For pERK ELISA assay, pERK TiterZyme Enzyme immunometric Assay kits were acquired from Assay Designs, Inc (Ann Arbor, Mich.). […]

[2] = tested on: MEK; test: Cellular assay for MEK inhibition: ERK phosphorylation in C26 cells (C26CPA1); format: cell-based; details: inhibition of ERK phosphorylation, murine colon 26 (C26) carcinoma cells, one hour at 37° C.
Experimental: as §1, §2

SMILES	IC50 [1] [µM]	melting point [°C]	IC50 [2] [µM]
O=C(CO)c1ccc(F)c(F)c1Nc1ccc(I)cc1F [Example 1, 1-[3,4-Difluoro-2-(2-fluoro-4-iodo-phenylamino)-phenyl]-2-hydroxy-ethanone]	0.02	128 to 128.5	0.0065
C#Cc1ccc(Nc2c(C(=O)c3ccccn3)ccc(F)c2F)c(F)c1 [Example 2, [2-(4-Ethynyl-2-fluoro-phenylamino)-3,4-difluoro-phenyl]-pyridin-2-yl-methanone]	–	109 to 111	–
C#Cc1ccc(Nc2c(C(=O)c3nccs3)ccc(F)c2F)c(F)c1 [Example 3, [2-(4-Ethynyl-2-fluoro-phenylamino)-3,4-difluoro-phenyl]-thiazol-2-yl-methanone]	–	161	–
C#Cc1ccc(Nc2c(C(=O)c3nccn3C)ccc(F)c2F)c(F)c1 [Example 4, [2-(4-Ethynyl-2-fluoro-phenylamino)-3,4-difluoro-phenyl]-(1-methyl-1H-imidazol-2-yl)-methanone]	–	166	–
Cc1coc(C(=O)c2ccc(F)c(F)c2Nc2ccc(I)cc2F)n1 [Example 5, [3,4-Difluoro-2-(2-fluoro-4-iodo-phenylamino)-phenyl]-(4-methyl-oxazol-2-yl)-methanone]	–	127	0.287
C#Cc1ccc(Nc2c(C(C)=O)ccc(F)c2F)c(F)c1 [Example 10, 1-[2-(4-Ethynyl-2-fluoro-phenylamino)-3,4-difluoro-phenyl]-ethanone]	–	78 to 80	–
